We go through 34 molecules from ChEMBL document CHEMBL4402569.

Assay [1] deals with H5N1 subtype. In words: Antiviral activity against pseudotyped Influenza A virus H5N1 (Goose/Qinghai/59/05) infected in human A549 cells assessed as inhibition of viral replication at 12.5 uM incubated for 48 hrs by luciferase reporter gene assay relative to control. In kind it is functional. Particulars: Goose/Qinghai/59/05, A549, 48 h. (In a reporter assay the amount or activity of a reporter protein is the signal.)

Assay [2] has as its system Influenza A virus. In words: Antiviral activity against Influenza A virus (A/Puerto Rico/8/1934(H1N1)) infected in MDCK cells incubated for 1 hr and measured after 36 hrs by PR8-PB2 Gaussia luciferase reporter gene assay. In kind it is functional, organism-based.
For assay [3], the system named is H5N1 subtype. In words: Antiviral activity against pseudotyped Influenza A virus H5N1 (Goose/Qinghai/59/05) infected in human A549 cells assessed as inhibition of viral replication at incubated for 48 hrs by luciferase reporter gene assay. In kind it is functional, organism-based. The note with it: Goose/Qinghai/59/05, A549, 48 h.
The subject of assay [4] is H5N1 subtype. Put plainly: Antiviral activity against Influenza A virus (A/Viet Nam/1203/2004(H5N1)) infected in human A549 cells assessed as decrease in viral titer at 20 uM by standard plaque assay. Type of assay: functional.
Assay [5] has as its system Influenza A virus. Put plainly: Antiviral activity against Influenza A virus (A/Puerto Rico/8/1934(H1N1)) infected in human A549 cells assessed as decrease in viral titer at 1 uM by standard plaque assay. In kind it is functional, organism-based.
Assay [6] has as its system H5N1 subtype. Put plainly: Antiviral activity against Influenza A virus (A/Viet Nam/1203/2004(H5N1)) infected in human A549 cells assessed as decrease in viral titer at 1 uM by standard plaque assay. In kind it is functional, organism-based.
Assay [7] relates to Influenza A virus. In words: Antiviral activity against Influenza A virus (A/Puerto Rico/8/1934(H1N1)) infected in MDCK cells assessed as combination index at 35 nM incubated for 1 hr and measured after 36 hrs in presence of 156 nM Oseltamivir carboxylate by PR8-NS1 Gaussia luciferase reporter gene assay. Type of assay: functional.
Assay [8] has as its system Influenza A virus. In words: Antiviral activity against Influenza A virus (A/Puerto Rico/8/1934(H1N1)) infected in MDCK cells assessed as combination index at 68 nM incubated for 1 hr and measured after 36 hrs in presence of 156 nM Oseltamivir carboxylate by PR8-NS1 Gaussia luciferase reporter gene assay. Type of assay: functional.
Assay [9] has as its system Influenza A virus. In words: Antiviral activity against Influenza A virus (A/Puerto Rico/8/1934(H1N1)) infected in MDCK cells assessed as combination index at 114 nM incubated for 1 hr and measured after 36 hrs in presence of 156 nM Oseltamivir carboxylate by PR8-NS1 Gaussia luciferase reporter gene assay. Type of assay: functional.
Assay [10] deals with Influenza A virus. Put plainly: Antiviral activity against Influenza A virus (A/Puerto Rico/8/1934(H1N1)) infected in MDCK cells assessed as combination index at 83 nM incubated for 1 hr and measured after 36 hrs in presence of 156 nM Oseltamivir carboxylate by PR8-NS1 Gaussia luciferase reporter gene assay. In kind it is functional.
The subject of assay [11] is Influenza A virus. In words: Antiviral activity against Influenza A virus (A/Puerto Rico/8/1934(H1N1)) infected in MDCK cells assessed as combination index at 57 nM incubated for 1 hr and measured after 36 hrs in presence of 156 nM Oseltamivir carboxylate by PR8-NS1 Gaussia luciferase reporter gene assay. In kind it is functional.
The subject of assay [12] is Influenza A virus. Put plainly: Antiviral activity against Influenza A virus (A/Puerto Rico/8/1934(H1N1)) infected in MDCK cells assessed as combination index at 42 nM incubated for 1 hr and measured after 36 hrs in presence of 156 nM Oseltamivir carboxylate by PR8-NS1 Gaussia luciferase reporter gene assay. Type of assay: functional.
Assay [13] has as its system Influenza A virus. Put plainly: Antiviral activity against Influenza A virus (A/Puerto Rico/8/1934(H1N1)) infected in MDCK cells incubated for 1 hr and measured after 36 hrs by PR8-NS1 Gaussia luciferase reporter gene assay. In kind it is functional, organism-based.
Assay [14] deals with Influenza A virus. Put plainly: Antiviral activity against Influenza A virus (A/Puerto Rico/8/1934(H1N1)) infected in MDCK cells assessed as combination index at 49 nM incubated for 1 hr and measured after 36 hrs in presence of 156 nM Oseltamivir carboxylate by PR8-NS1 Gaussia luciferase reporter gene assay. Type of assay: functional.

Calls of active or inactive are those of the source. No cut-off for these calls is given here.

As to `CC(C)N1CCN(C(=O)c2c(Cl)cccc2Cl)CC1`, the inhibition (as a rule, the share of the control response that was lost under treatment) at 12.5 µM in the assay with H5N1 subtype [1] was 4%.
Still for that read-out and setting: the figure for `CC(C)N1CCCC(NC(=O)c2c(Cl)cccc2Cl)CC1` (stereo unspecified) is 71%; for `CC(C)N1CCC(C)(NC(=O)c2c(Cl)cccc2Cl)CC1` it is 75%.
As for `CC(C)N1CCC(NC(=O)c2ccc([N+](=O)[O-])cc2Cl)CC1`, the inhibition at 12.5 µM with H5N1 subtype [1] amounted to 97%. For the same molecule, the EC50 (as a rule, the concentration giving half of the maximal effect) is 211 nM in the assay with Influenza A virus [2] and 720 nM in the assay on H5N1 subtype [3].
As for `O=C(NC1CCN(C2CC2)CC1)c1c(Cl)cccc1Cl`, in the assay on H5N1 subtype [1], the inhibition at 12.5 µM was 33%.
As for `CC(C)N1CCC(NC(=O)c2c(Cl)cccc2C(F)(F)F)CC1`, the inhibition at 12.5 µM in the assay with H5N1 subtype [1] amounted to 85%. Further, the EC50 came to 587 nM in the assay on Influenza A virus [2] and 5620 nM in the assay on H5N1 subtype [3].
Consider `CC(C)N1CCC(NC(=O)c2ncccc2Cl)CC1`, for which, in the assay on H5N1 subtype [1], the inhibition at 12.5 µM is 40%.
In the case of `CC(C)N1CCC(NC(=O)c2ncc(C(F)(F)F)cc2Cl)CC1`, the inhibition at 12.5 µM in the assay on H5N1 subtype [1] is 76%.
`CC(C)(C)N1CCC(NC(=O)c2c(Cl)cccc2Cl)CC1`: the inhibition at 20 µM in the assay on H5N1 subtype [4] worked out at 100%. Besides, the inhibition entry in the assay with Influenza A virus [5] and with H5N1 subtype [6] was “Active” each time. Moreover, the inhibition at 12.5 µM in the assay on H5N1 subtype [1] is 99%. Besides, the values for the EC50 in the assay with Influenza A virus [2] and in the assay on H5N1 subtype [3] were 113 nM and 510 nM, respectively.
On to `O=C(NC1CCN(C2CCCCC2)CC1)c1ccc(C(F)(F)F)cc1Cl`, for which, in the assay with H5N1 subtype [1], the inhibition at 12.5 µM came to 98%. Moreover, the EC50 in the assay with Influenza A virus [2] was 505 nM; in the assay with H5N1 subtype [3] it was 910 nM.
In the case of `CC(C)N1CCC(CNC(=O)c2c(Cl)cccc2Cl)CC1`, in the assay on H5N1 subtype [1], the inhibition at 12.5 µM was 23%.
The same measure, in the same setting: the figure for `CC(C)N1CCC(NS(=O)(=O)c2ccc(Cl)cc2Cl)CC1` is 1%; for `CC(C)N1CCC(NC(=O)c2ccccc2C(F)(F)F)CC1` it is 31%; for `CC(C)N1CCC2(CC1)OCCN2C(=O)c1c(Cl)cccc1Cl` it is 19%.
Turning to `CC(C)N1CCC(NC(=O)c2c(Cl)cccc2Cl)C(F)(F)C1` (racemic), the inhibition at 12.5 µM in the assay with H5N1 subtype [1] was found to be 77%.
In the case of `CC(C)N1CCCC(NC(=O)c2c(Cl)cccc2Cl)C1` (stereo unspecified), the inhibition at 12.5 µM with H5N1 subtype [1] stood at 14%.
Same read-out and setting: with `CO[C@H]1CN(C(C)C)CC[C@H]1NC(=O)c1c(Cl)cccc1Cl` the figure was 64%.
On to `CC(C)N1CC[C@@H](NC(=O)c2ccc(C(F)(F)F)cc2Cl)[C@@H](F)C1`, for which, in the assay on H5N1 subtype [1], the inhibition at 12.5 µM stood at 87%. The EC50 was 989 nM with Influenza A virus [2] and 2930 nM in the assay with H5N1 subtype [3].
`CC(C)N1CCC(NC(=O)c2ncc(Cl)cc2Cl)CC1`: the inhibition at 12.5 µM with H5N1 subtype [1] amounted to 39%.
Regarding `CC(C)CN1CCC(NC(=O)c2c(Cl)cccc2Cl)CC1`, in the assay with H5N1 subtype [1], the inhibition at 12.5 µM came to 89%. Besides, the EC50 in the assay on Influenza A virus [2] came to 852 nM; in the assay with H5N1 subtype [3], 2150 nM.
Take `CC(C)N1CCC(NC(=O)c2ccc(C(F)(F)F)cc2Cl)CC1`: the inhibition at 20 µM with H5N1 subtype [4] turned out to be 100%. The inhibition entry with Influenza A virus [5] and in the assay on H5N1 subtype [6] was “Active” in each case. For the same molecule, in the assay with H5N1 subtype [1], the inhibition at 12.5 µM is 99%. Further, the EC50 in the assay on Influenza A virus [2] was found to be 380 nM; in the assay with H5N1 subtype [3], 360 nM.
In the case of `CC(C)N1CC2C(C1)C2NC(=O)c1c(Cl)cccc1Cl` (stereo unspecified), the inhibition at 12.5 µM with H5N1 subtype [1] was determined as 61%.
On to `CC(C)N1CC[C@H](NC(=O)c2ccc(C(F)(F)F)cc2Cl)[C@@H](F)C1`, for which, in the assay with H5N1 subtype [1], the inhibition at 12.5 µM is 93%. In addition, the EC50 in the assay with Influenza A virus [2] is 324 nM; with H5N1 subtype [3], 1160 nM.
In the case of `CCC(CC)O[C@@H]1C=C(C(=O)O)C[C@H](N)[C@H]1NC(C)=O` [OSELTAMIVIR CARBOXYLATE], the CI in the assay on Influenza A virus [7] amounted to 1.23. Further, the inhibition entry in the assay with H5N1 subtype [4] was “inactive”. Besides, the CI with Influenza A virus [8] is on record as 0.51. Moreover, in the assay with Influenza A virus [9], the CI is 0.34. In addition, the CI in the assay with Influenza A virus [10] was determined as 0.42. Also, the CI with Influenza A virus [11] stood at 0.61. Moreover, in the assay with Influenza A virus [12], the CI is given as 0.94. In addition, in the assay with Influenza A virus [13], the 30% effect level (EC30) was put at 160 nM; the EC40 worked out at 229 nM; the midpoint of the response, the EC50, lay at 318 nM; the EC60 is 441 nM. In the assay with Influenza A virus [13], it took 629 nM to reach the 70% level (EC70); the EC80 (usually the concentration at which the effect reaches the 80% level) came out at 972 nM; the EC90 (in general, the concentration at which the effect reaches the 90% level) was found to be 1870 nM. Further, the CI with Influenza A virus [14] is 0.75.
With `CC(C)CN1CCC(NC(=O)c2ccc(C(F)(F)F)cc2Cl)CC1`, the inhibition at 12.5 µM in the assay on H5N1 subtype [1] is 73%.
For the molecule `O=C(NC1CCN(C2CCC2)CC1)c1c(Cl)cccc1Cl`, the inhibition at 12.5 µM in the assay on H5N1 subtype [1] turned out to be 76%.
As to `CC(C)N1CCC(N(C)C(=O)c2c(Cl)cccc2Cl)CC1`, the inhibition at 12.5 µM with H5N1 subtype [1] stood at 91%. For the same molecule, the half-maximal effective concentration (EC50) is 724 nM with Influenza A virus [2] and 4450 nM in the assay on H5N1 subtype [3].
Regarding `CC(C)N1CCC(NC(=O)c2c(Cl)cccc2Cl)C1` (stereo unspecified), the inhibition at 12.5 µM in the assay on H5N1 subtype [1] amounted to 11%.
`CC(C)N1CC[C@@H](NC(=O)c2ccc(C(F)(F)F)cc2Cl)[C@H](F)C1`: the inhibition at 12.5 µM in the assay with H5N1 subtype [1] was 99%. The EC50 with Influenza A virus [2] was 263 nM; with H5N1 subtype [3], 630 nM.
Take `CC(C)N1CC[C@H](NC(=O)c2c(Cl)cccc2Cl)[C@@H](F)C1`: the inhibition at 12.5 µM in the assay with H5N1 subtype [1] was found to be 87%. Also, the EC50 with Influenza A virus [2] came to 885 nM; in the assay with H5N1 subtype [3] it was 1810 nM.
In the case of `O=C(NC1CCN(C2COC2)CC1)c1c(Cl)cccc1Cl`, the inhibition at 12.5 µM in the assay on H5N1 subtype [1] came out at 7%.
For `CC(C)N1CCC(NC(=O)c2c(Cl)cccc2Cl)CC1`, the inhibition at 20 µM in the assay on H5N1 subtype [4] is 100%. Besides, the inhibition entry with Influenza A virus [5] and with H5N1 subtype [6] was “Active” in each case. In the assay with H5N1 subtype [1], the inhibition at 12.5 µM turned out to be 90%. In addition, the EC50 came out at 272 nM in the assay on Influenza A virus [2] and 3040 nM with H5N1 subtype [3].
Turning to `CC(C)N1CC[C@H](NC(=O)c2ccc(C(F)(F)F)cc2Cl)[C@H](F)C1`, the inhibition at 20 µM in the assay on H5N1 subtype [4] turned out to be 100%. Moreover, the inhibition result in the assay on Influenza A virus [5] and with H5N1 subtype [6] was “Active” throughout. For the same molecule, the inhibition at 12.5 µM in the assay with H5N1 subtype [1] was found to be 99%. Besides, the EC50 in the assay with Influenza A virus [2] came to 195 nM; with H5N1 subtype [3], 670 nM.
On to `CC(C)N1CCC(N(Cc2ccccc2)C(=O)c2c(Cl)cccc2Cl)CC1`, for which the inhibition at 12.5 µM with H5N1 subtype [1] is 64%.
